Source: ChEMBL document CHEMBL1125081, “Stereospecific synthesis and antiviral properties of different enantiomerically pure carbocyclic 2'-deoxyribonucleoside analogues derived from common chiral pools: (+)-(1R,5S)- and (-)-(1S,5R)-2-oxabicyclo[3.3.0]oct-6-en-3-one” (1990)
In brackets after ≈: the same amount, converted by molar mass.

What follows are compounds tested on HeLa (assay: Evaluated for minimum inhibitory concentration against HeLa cells (human carcinoma) infected with VSV, Coxs, B4, polio-1 virus). Settings: not given.
Assay type: functional

SMILES | MIC [µg/mL]
O=c1[nH]c(=O)n([C@H]2C[C@H](O)[C@@H](CO)O2)cc1/C=C/Br [BRIVUDINE] | > 400
Cc1cn([C@H]2C[C@H](O)[C@@H](CO)[C@@H]2C)c(=O)[nH]c1=O | > 400
Cc1cn([C@H]2C[C@@H](CO)[C@H](O)C2)c(=O)[nH]c1=O | > 100
Cc1cn([C@@H]2C[C@H](CO)[C@@H](O)C2)c(=O)[nH]c1=O | > 100
Cc1cn(C2CC3OCC2C3CO)c(=O)[nH]c1=O (stereo unspecified) | > 400
Nc1nccc2c1ncn2[C@@H]1C[C@H](CO)[C@@H](O)[C@H]1O [3-DEAZAARISTEROMYCIN A] | 2 (≈ 7.57 µM)
Cc1cn([C@@H]2C[C@H](CO)[C@H](O)C2)c(=O)[nH]c1=O | > 400
Cc1cn([C@H]2CC[C@@H](CO)C2)c(=O)[nH]c1=O | > 400
Nc1ncnc2c1ncn2[C@@H]1C[C@H](CO)[C@@H](O)C1 | > 100
NC(=O)c1ncn([C@@H]2O[C@H](CO)[C@@H](O)[C@H]2O)n1 [RIBAVIRIN] | 20 (≈ 81.9 µM)

Each compound was assayed on Vero (assay: Evaluated for minimum inhibitory concentration against Vero cells (African green monkey) infected with PV-3, RV-1, SV, Coxs B4, SFV virus). Settings: Chlorocebus sabaeus.
Assay type: functional

SMILES | MIC [µg/mL]
O=c1[nH]c(=O)n([C@H]2C[C@H](O)[C@@H](CO)O2)cc1/C=C/Br [BRIVUDINE] | > 400
Cc1cn([C@H]2C[C@H](O)[C@@H](CO)[C@@H]2C)c(=O)[nH]c1=O | > 400
Cc1cn([C@H]2C[C@@H](CO)[C@H](O)C2)c(=O)[nH]c1=O | > 400
Cc1cn([C@@H]2C[C@H](CO)[C@@H](O)C2)c(=O)[nH]c1=O | > 100
Cc1cn(C2CC3OCC2C3CO)c(=O)[nH]c1=O (stereo unspecified) | > 400
Nc1nccc2c1ncn2[C@@H]1C[C@H](CO)[C@@H](O)[C@H]1O [3-DEAZAARISTEROMYCIN A] | 0.7 (≈ 2.65 µM)
Cc1cn([C@@H]2C[C@H](CO)[C@H](O)C2)c(=O)[nH]c1=O | > 200
Cc1cn([C@H]2CC[C@@H](CO)C2)c(=O)[nH]c1=O | > 400
Nc1ncnc2c1ncn2[C@@H]1C[C@H](CO)[C@@H](O)C1 | > 100
NC(=O)c1ncn([C@@H]2O[C@H](CO)[C@@H](O)[C@H]2O)n1 [RIBAVIRIN] | 150 (≈ 614 µM)

The compounds below were run on Human alphaherpesvirus 1 (assay: Evaluated for minimum inhibitory concentration against TK-B2006 strain of Herpes simplex virus (HSV-1) in primary rabbit kidney cells). Settings: not given.
Assay type: functional

SMILES | MIC [µg/mL]
O=c1[nH]c(=O)n([C@H]2C[C@H](O)[C@@H](CO)O2)cc1/C=C/Br [BRIVUDINE] | > 200
Cc1cn([C@H]2C[C@H](O)[C@@H](CO)[C@@H]2C)c(=O)[nH]c1=O | > 400
Cc1cn([C@@H]2C[C@H](CO)[C@@H](O)C2)c(=O)[nH]c1=O | 40 (≈ 166 µM)
Cc1cn(C2CC3OCC2C3CO)c(=O)[nH]c1=O (stereo unspecified) | > 400
Nc1nccc2c1ncn2[C@@H]1C[C@H](CO)[C@@H](O)[C@H]1O [3-DEAZAARISTEROMYCIN A] | 150 (≈ 568 µM)
Cc1cn([C@@H]2C[C@H](CO)[C@H](O)C2)c(=O)[nH]c1=O | > 400
Cc1cn([C@H]2CC[C@@H](CO)C2)c(=O)[nH]c1=O | > 400
Nc1ncnc2c1ncn2[C@@H]1C[C@H](CO)[C@@H](O)C1 | 100 (≈ 401 µM)
NC(=O)c1ncn([C@@H]2O[C@H](CO)[C@@H](O)[C@H]2O)n1 [RIBAVIRIN] | > 400

What follows are compounds tested on Vaccinia virus (assay: Evaluated for minimum inhibitory concentration against Vaccinia virus (VV) in primary rabbit kidney cells). Settings: Orthopoxvirus vaccinia.
Assay type: functional

SMILES | MIC [µg/mL]
O=c1[nH]c(=O)n([C@H]2C[C@H](O)[C@@H](CO)O2)cc1/C=C/Br [BRIVUDINE] | 20 (≈ 60 µM)
Cc1cn([C@H]2C[C@H](O)[C@@H](CO)[C@@H]2C)c(=O)[nH]c1=O | > 400
Cc1cn([C@H]2C[C@@H](CO)[C@H](O)C2)c(=O)[nH]c1=O | > 400
Cc1cn([C@@H]2C[C@H](CO)[C@@H](O)C2)c(=O)[nH]c1=O | 2 (≈ 8.32 µM)
Cc1cn(C2CC3OCC2C3CO)c(=O)[nH]c1=O (stereo unspecified) | > 400
Nc1nccc2c1ncn2[C@@H]1C[C@H](CO)[C@@H](O)[C@H]1O [3-DEAZAARISTEROMYCIN A] | 0.7 (≈ 2.65 µM)
Cc1cn([C@@H]2C[C@H](CO)[C@H](O)C2)c(=O)[nH]c1=O | > 400
Cc1cn([C@H]2CC[C@@H](CO)C2)c(=O)[nH]c1=O | > 400
Nc1ncnc2c1ncn2[C@@H]1C[C@H](CO)[C@@H](O)C1 | 100 (≈ 401 µM)
NC(=O)c1ncn([C@@H]2O[C@H](CO)[C@@H](O)[C@H]2O)n1 [RIBAVIRIN] | 10 (≈ 40.9 µM)

Each compound was assayed on Vesicular stomatitis virus (assay: Evaluated for minimum inhibitory concentration against Vesicular stomatitis virus (VSV) in primary rabbit kidney cells). Settings: not given.
Assay type: functional

SMILES | MIC [µg/mL]
O=c1[nH]c(=O)n([C@H]2C[C@H](O)[C@@H](CO)O2)cc1/C=C/Br [BRIVUDINE] | > 400
Cc1cn([C@H]2C[C@@H](CO)[C@H](O)C2)c(=O)[nH]c1=O | > 400
Cc1cn([C@@H]2C[C@H](CO)[C@@H](O)C2)c(=O)[nH]c1=O | > 200
Cc1cn(C2CC3OCC2C3CO)c(=O)[nH]c1=O (stereo unspecified) | > 400
Nc1nccc2c1ncn2[C@@H]1C[C@H](CO)[C@@H](O)[C@H]1O [3-DEAZAARISTEROMYCIN A] | 0.7 (≈ 2.65 µM)
Cc1cn([C@@H]2C[C@H](CO)[C@H](O)C2)c(=O)[nH]c1=O | > 400
Cc1cn([C@H]2CC[C@@H](CO)C2)c(=O)[nH]c1=O | > 400
Nc1ncnc2c1ncn2[C@@H]1C[C@H](CO)[C@@H](O)C1 | > 400
NC(=O)c1ncn([C@@H]2O[C@H](CO)[C@@H](O)[C@H]2O)n1 [RIBAVIRIN] | 300 (≈ 1230 µM)

The compounds below were run on Human alphaherpesvirus 2 (assay: Evaluated for minimum inhibitory concentration against G,196, Lyons strains of Herpes simplex virus (HSV-2) in primary rabbit kidney cells). Settings: not given.
Assay type: functional

SMILES | MIC [µg/mL]
O=c1[nH]c(=O)n([C@H]2C[C@H](O)[C@@H](CO)O2)cc1/C=C/Br [BRIVUDINE] | 7 (≈ 21 µM)
Cc1cn([C@H]2C[C@H](O)[C@@H](CO)[C@@H]2C)c(=O)[nH]c1=O | > 400
Cc1cn([C@H]2C[C@@H](CO)[C@H](O)C2)c(=O)[nH]c1=O | > 400
Cc1cn([C@@H]2C[C@H](CO)[C@@H](O)C2)c(=O)[nH]c1=O | 2 (≈ 8.32 µM)
Cc1cn(C2CC3OCC2C3CO)c(=O)[nH]c1=O (stereo unspecified) | > 400
Nc1nccc2c1ncn2[C@@H]1C[C@H](CO)[C@@H](O)[C@H]1O [3-DEAZAARISTEROMYCIN A] | > 400
Cc1cn([C@@H]2C[C@H](CO)[C@H](O)C2)c(=O)[nH]c1=O | > 400
Cc1cn([C@H]2CC[C@@H](CO)C2)c(=O)[nH]c1=O | > 400
Nc1ncnc2c1ncn2[C@@H]1C[C@H](CO)[C@@H](O)C1 | 20 (≈ 80.2 µM)
NC(=O)c1ncn([C@@H]2O[C@H](CO)[C@@H](O)[C@H]2O)n1 [RIBAVIRIN] | > 400

These compounds were tested on Vesicular stomatitis virus (assay: Evaluated for minimum inhibitory concentration (MIC) against Vesicular stomatitis virus (VSV)). Settings: not given.
Assay type: functional

SMILES | MIC [µg/mL]
Cc1cn([C@H]2C[C@H](O)[C@@H](CO)[C@@H]2C)c(=O)[nH]c1=O | > 400

Each compound was assayed on Human immunodeficiency virus 1 (assay: Evaluated for minimum inhibitory concentration (MIC) against MT-4 cells of human immunodeficiency virus type-1 (HIV-1)). Settings: not given.
Assay type: functional, MT4

SMILES | MIC [µg/mL]
Cc1cn([C@H]2C[C@H](O)[C@@H](CO)[C@@H]2C)c(=O)[nH]c1=O | > 250
Cc1cn([C@H]2C[C@@H](CO)[C@H](O)C2)c(=O)[nH]c1=O | > 160
Cc1cn(C2CC3OCC2C3CO)c(=O)[nH]c1=O (stereo unspecified) | > 250
Cc1cn([C@@H]2C[C@H](CO)[C@H](O)C2)c(=O)[nH]c1=O | > 250
Cc1cn([C@H]2CC[C@@H](CO)C2)c(=O)[nH]c1=O | > 250
Nc1ncnc2c1ncn2[C@@H]1C[C@H](CO)[C@@H](O)C1 | > 50
Cc1cn([C@H]2C[C@H](N=[N+]=[N-])[C@@H](CO)O2)c(=O)[nH]c1=O [ZIDOVUDINE] | 0.001 (≈ 0.00374 µM)

Each compound was assayed on Human alphaherpesvirus 1 (assay: Evaluated for minimum inhibitory concentration against KOS, F, McIntyre strains of Herpes simplex virus (HSV-1) in primary rabbit kidney cells). Settings: not given.
Assay type: functional

SMILES | MIC [µg/mL]
O=c1[nH]c(=O)n([C@H]2C[C@H](O)[C@@H](CO)O2)cc1/C=C/Br [BRIVUDINE] | 0.02 (≈ 0.06 µM)
Cc1cn([C@H]2C[C@H](O)[C@@H](CO)[C@@H]2C)c(=O)[nH]c1=O | > 400
Cc1cn([C@H]2C[C@@H](CO)[C@H](O)C2)c(=O)[nH]c1=O | > 400
Cc1cn([C@@H]2C[C@H](CO)[C@@H](O)C2)c(=O)[nH]c1=O | 0.2 (≈ 0.832 µM)
Cc1cn(C2CC3OCC2C3CO)c(=O)[nH]c1=O (stereo unspecified) | > 400
Nc1nccc2c1ncn2[C@@H]1C[C@H](CO)[C@@H](O)[C@H]1O [3-DEAZAARISTEROMYCIN A] | > 400
Cc1cn([C@@H]2C[C@H](CO)[C@H](O)C2)c(=O)[nH]c1=O | > 400
Cc1cn([C@H]2CC[C@@H](CO)C2)c(=O)[nH]c1=O | > 400
Nc1ncnc2c1ncn2[C@@H]1C[C@H](CO)[C@@H](O)C1 | 2 (≈ 8.02 µM)
NC(=O)c1ncn([C@@H]2O[C@H](CO)[C@@H](O)[C@H]2O)n1 [RIBAVIRIN] | > 400
